According to US6875865B1, “Selected derivatives of K-252a” (Cephalon, Inc., priority 1996, dated 2005):

Each molecule was assayed on basal forebrain cultures (assay: Basal Forebrain ChAT Activity Assay). Conditions: day six, concentration not given, tested between 10 nM and 500 nM, at least 120% of control = active.
Format: cell-based, rat
Procedure: Compounds of the invention were assessed for their ability to promote survival and increase in ChAT activity in basal forebrain cultures. ChAT activity in these cultures is a biochemical marker for the cholinergic neurons (less than 5% of the cells in culture), which represent the major cholinergic input to the hippocampal formation, olfactory nucleus, interpeduncular nucleus, cortex, amygdala, and parts of the thalamus. […] The basal forebrain was dissected from embryonic day 17 or 18 rat embryos and the cells were […] with Dispase™ (neutral protease, Collaborative Research). Neurons were plated at 5×10^4 cells/well (1.5×10^5 cells/cm^2) in wells of 96-well plates previously coated with […] and laminin. Cells were cultured in serum-free N2 medium containing 0.05% bovine serum albumin (BSA) (Bottenetein et al., supra) at 37° in a humidified atmosphere of 5% CO2/95% air. ChAT activity was measured in vitro at day six, using a modification of the Formum procedure (supra) according to McManaman et al. (supra) and Glicksman et al. (J. Neurochem. 61:210-221, 1993).
(§1) Compounds which increased ChAT activity at least 120% of the control activity are considered active.

Row | Structure (SMILES) | ChAT Activity maximum efficacy % of Control (conc)
1 | COC(=O)C1(O)CC2OC1(C)n1c3ccc(CCN4CCOCC4)cc3c3c4c(c5c6cc(CCN7CCOCC7)ccc6n2c5c31)C(=O)NC4 (stereo not drawn) [Compound 76] | <120 % of Control
2 | COC(=O)C1(O)CC2OC1(C)n1c3ccc(CCN4CCCCC4)cc3c3c4c(c5c6cc(CCN7CCCCC7)ccc6n2c5c31)C(=O)NC4 (stereo not drawn) [Compound 75] | <120 % of Control
3 | COC(=O)C1(O)CC2OC1(C)n1c3ccc(CCCSc4nc5ccccc5s4)cc3c3c4c(c5c6cc(CCCSc7nc8ccccc8s7)ccc6n2c5c31)C(=O)NC4 (stereo not drawn) [Compound 96] | <120 % of Control
4 | COC(=O)C1(O)CC2OC1(C)n1c3ccc(C(=O)CSc4ncccn4)cc3c3c4c(c5c6cc(C(=O)CSc7ncccn7)ccc6n2c5c31)C(=O)NC4 (stereo not drawn) [Compound 49] | <120 % of Control
5 | COC(=O)C1(O)CC2OC1(C)n1c3ccc(CCI)cc3c3c4c(c5c6cc(CCI)ccc6n2c5c31)C(=O)NC4 (stereo not drawn) [Compound 70a] | <120 % of Control
6 | COC(=O)CSCCc1ccc2c(c1)c1c3c(c4c5cc(CCSCC(=O)OC)ccc5n5c4c1n2C1CC(O)(C(=O)OC)C5(C)O1)CNC3=O (stereo not drawn) [Compound 89] | <120 % of Control
7 | CCOC(=O)CCSCCc1ccc2c(c1)c1c3c(c4c5cc(CCSCCC(=O)OCC)ccc5n5c4c1n2C1CC(O)(C(=O)OC)C5(C)O1)CNC3=O (stereo not drawn) [Compound 90] | <120 % of Control
8 | COC(=O)C1(O)CC2OC1(C)n1c3ccc(COCCN(C)C)cc3c3c4c(c5c6cc(C=Cc7ccccn7)ccc6n2c5c31)C(=O)NC4 (stereo not drawn) [Compound 104] | <120 % of Control
9 | COC(=O)C1(O)CC2OC1(C)n1c3ccc(CCN(C)CCO)cc3c3c4c(c5c6cc(CCN(C)CCO)ccc6n2c5c31)C(=O)NC4 (stereo not drawn) [Compound 78] | <120 % of Control
10 | COC(=O)C1(O)CC2OC1(C)n1c3ccc(CCNCc4ccc(OC)cc4)cc3c3c4c(c5c6cc(CCNCc7ccc(OC)cc7)ccc6n2c5c31)C(=O)NC4 (stereo not drawn) [Compound 80] | <120 % of Control
11 | CNCCc1ccc2c(c1)c1c3c(c4c5cc(CCNC)ccc5n5c4c1n2C1CC(O)(C(=O)OC)C5(C)O1)CNC3=O (stereo not drawn) [Compound 79] | <120 % of Control
12 | COC(=O)C1(O)CC2OC1(C)n1c3ccc(CCCN4CCOCC4)cc3c3c4c(c5c6cc(CCCN7CCOCC7)ccc6n2c5c31)C(=O)NC4 (stereo not drawn) [Compound 83] | <120 % of Control
13 | CCN(CC)CCCc1ccc2c(c1)c1c3c(c4c5cc(CCCN(CC)CC)ccc5n5c4c1n2C1CC(O)(C(=O)OC)C5(C)O1)CNC3=O (stereo not drawn) [Compound 84] | <120 % of Control
14 | COC(=O)C1(O)CC2OC1(C)n1c3ccc(CCSc4ccncc4)cc3c3c4c(c5c6cc(CCSc7ccncc7)ccc6n2c5c31)C(=O)NC4 (stereo not drawn) [Compound 93] | <120 % of Control

Same assay, conditions: day six, maximum efficacy at 50 nM

Row | Structure (SMILES) | ChAT Activity maximum efficacy % of Control (conc)
15 | COCc1ccc2c(c1)c1c3c(c4c5cc(C=Cc6ccccn6)ccc5n5c4c1n2C1(C)OC5CC1(O)C(=O)OC)C(=O)NC3 (stereo not drawn) [Compound 102] | 176 (50 nM) % of Control
16 | CCSCc1ccc2c(c1)c1c3c(c4c5cc(C=Cc6ccccn6)ccc5n5c4c1n2C1(C)OC5CC1(O)C(=O)OC)C(=O)NC3 (stereo not drawn) [Compound 105] | 136 (50 nM) % of Control
17 | CCOCc1ccc2c(c1)c1c3c(c4c5cc(C=Cc6ccccn6)ccc5n5c4c1n2C1(C)OC5CC1(O)C(=O)OC)C(=O)NC3 (stereo not drawn) [Compound 103] | 154 (50 nM) % of Control
18 | COC(=O)C1(O)CC2OC1(C)n1c3ccccc3c3c4c(c5c6cc(C#CCN(C)C)ccc6n2c5c31)C(=O)NC4 (stereo not drawn) [Compound 61] | 166 (50 nM) % of Control

Same assay, conditions: day six, maximum efficacy at 250 nM

Row | Structure (SMILES) | ChAT Activity maximum efficacy % of Control (conc)
19 | COC(=O)C1(O)CC2OC1(C)n1c3ccc(CCCOC=O)cc3c3c4c(c5c6cc(CCCOC=O)ccc6n2c5c31)C(=O)NC4 (stereo not drawn) [Compound 73b] | 171 (250 nM) % of Control
20 | COC(=O)C1(O)CC2OC1(C)n1c3ccc(C=CCN(C)C)cc3c3c4c(c5c6cc(C=CCN(C)C)ccc6n2c5c31)C(=O)NC4 (stereo not drawn) [Compound 64] | 165 (250 nM) % of Control
21 | COC(=O)C1(O)CC2OC1(C)n1c3ccc(CCCN4CCCCC4)cc3c3c4c(c5c6cc(CCCN7CCCCC7)ccc6n2c5c31)C(=O)NC4 (stereo not drawn) [Compound 82] | 150 (250 nM) % of Control
22 | COC(=O)C1(O)CC2OC1(C)n1c3ccc(CCCO)cc3c3c4c(c5c6cc(CCCO)ccc6n2c5c31)C(=O)NC4 (stereo not drawn) [Compound 73c] | 190 (250 nM) % of Control
23 | COC(=O)C1(O)CC2OC1(C)n1c3ccc(CSCCN(C)C)cc3c3c4c(c5c6cc(C=Cc7ccccn7)ccc6n2c5c31)C(=O)NC4 (stereo not drawn) [Compound 106] | 135 (250 nM) % of Control
24 | CCN(CC)CCc1ccc2c(c1)c1c3c(c4c5cc(CCN(CC)CC)ccc5n5c4c1n2C1CC(O)(C(=O)OC)C5(C)O1)CNC3=O (stereo not drawn) [Compound 77] | 132 (250 nM) % of Control
25 | COC(=O)C1(O)CC2OC1(C)n1c3ccc(C(=O)CSc4ccncc4)cc3c3c4c(c5c6ccccc6n2c5c31)C(=O)NC4 (stereo not drawn) [Compound 42b] | 164 (250 nM) % of Control

The molecules below were run on dissociated spinal cord cultures (assay: Spinal Cord ChAT Activity Assay). Conditions: concentration not given, at least 120% of control = active.
Format: cell-based, rat
Procedure: The effect of selected ring substituted K-252a derivatives on CHAT activity was assayed in dissociated spinal cord cultures prepared from fetal rats using the procedure described in U.S. Pat. No. 5,461,146, Columns 26 and 27, Examples 6 and 7. ChAT is the enzyme that catalyzes the synthesis of the neurotransmitter acetylcholine, and it is a specific biochemical marker for cholinergic neurons. In the spinal cord, the large majority of cholinergic neurons are motor neurons. Assay of this enzyme may thus be used as an indication of the effects of a factor, or actors, on the survival of cholinergic neurons and/or regulation of this enzyme.
as §1

Row | Structure (SMILES) | ChAT Activity maximum efficacy % of Control (conc)
26 | COC(=O)CCc1ccc2c(c1)c1c3c(c4c5cc(CCC(=O)OC)ccc5n5c4c1n2C1CC(O)(C(=O)OC)C5(C)O1)CNC3=O (stereo not drawn) [Compound 139] | <120 % of Control

Same assay, conditions: maximum efficacy at 30 nM

Row | Structure (SMILES) | ChAT Activity maximum efficacy % of Control (conc)
27 | CCSCc1ccc2c(c1)c1c3c(c4c5cc(C=Cc6ccccn6)ccc5n5c4c1n2C1CC(O)(C(=O)OC)C5(C)O1)CNC3=O (stereo not drawn) [Compound 118] | 249 (30 nM) % of Control
28 | COC(=O)C1(O)CC2OC1(C)n1c3ccc(C=Cc4ccccn4)cc3c3c4c(c5c6cc(CSc7ccccn7)ccc6n2c5c31)C(=O)NC4 (stereo not drawn) [Compound 119] | 272 (30 nM) % of Control
29 | CCOCc1ccc2c(c1)c1c3c(c4c5cc(C=Cc6ccccn6)ccc5n5c4c1n2C1CC(O)(C(=O)OC)C5(C)O1)CNC3=O (stereo not drawn) [Compound 117] | 232 (30 nM) % of Control
30 | COCc1ccc2c(c1)c1c3c(c4c5cc(C=Cc6ccccn6)ccc5n5c4c1n2C1CC(O)(C(=O)OC)C5(C)O1)CNC3=O (stereo not drawn) [Compound 116] | 231 (30 nM) % of Control
31 | COC(=O)C=Cc1ccc2c(c1)c1c3c(c4c5cc(C=CC(=O)OC)ccc5n5c4c1n2C1CC(O)(C(=O)OC)C5(C)O1)CNC3=O (stereo not drawn) [Compound 1] | 153 (30 nM) % of Control

Same assay, conditions: maximum efficacy at 300 nM

Row | Structure (SMILES) | ChAT Activity maximum efficacy % of Control (conc)
32 | CCC=Cc1ccc2c(c1)c1c3c(c4c5cc(C=Cc6ccccn6)ccc5n5c4c1n2C1CC(O)(C(=O)OC)C5(C)O1)CNC3=O (stereo not drawn) [Compound 122] | 279 (300 nM) % of Control
33 | COC(=O)C1(O)CC2OC1(C)n1c3ccc(C=Cc4ccccn4)cc3c3c4c(c5c6cc(CSc7nc8ccccc8[nH]7)ccc6n2c5c31)C(=O)NC4 (stereo not drawn) [Compound 120] | 257 (300 nM) % of Control
34 | COC(=O)C1(O)CC2OC1(C)n1c3ccc(CCc4ccncc4)cc3c3c4c(c5c6cc(CCc7ccncc7)ccc6n2c5c31)C(=O)NC4 (stereo not drawn) [Compound 146] | 153 (300 nM) % of Control
35 | COC(=O)C1(O)CC2OC1(C)n1c3ccc(C=Cc4ccccn4)cc3c3c4c(c5c6cc(Br)ccc6n2c5c31)C(=O)NC4 (stereo not drawn) [Compound 142] | 223 (300 nM) % of Control
36 | CCOC(=O)CCc1ccc2c(c1)c1c3c(c4c5cc(CCC(=O)OCC)ccc5n5c4c1n2C1CC(O)(C(=O)OC)C5(C)O1)CNC3=O (stereo not drawn) [Compound 140] | 156 (300 nM) % of Control
37 | COC(=O)C1(O)CC2OC1(C)n1c3ccc(CCOC=O)cc3c3c4c(c5c6cc(CCOC=O)ccc6n2c5c31)C(=O)NC4 (stereo not drawn) [Compound 70b] | 169 (300 nM) % of Control
38 | CCOCOCc1ccc2c(c1)c1c3c(c4c5cc(COCOCC)ccc5n5c4c1n2C1CC(O)(C(=O)OC)C5(C)O1)CNC3=O (stereo not drawn) [Compound 156] | 217 (300 nM) % of Control
39 | COC(=O)C1(O)CC2OC1(C)n1c3ccc(C=Cc4ccncc4)cc3c3c4c(c5c6cc(C=Cc7ccncc7)ccc6n2c5c31)C(=O)NC4 (stereo not drawn) [Compound 145] | 129 (300 nM) % of Control
40 | COC(=O)C1(O)CC2OC1(C)n1c3ccc(CCc4ccccn4)cc3c3c4c(c5c6cc(Br)ccc6n2c5c31)C(=O)NC4 (stereo not drawn) [Compound 143] | 264 (300 nM) % of Control
41 | COCOCc1ccc2c(c1)c1c3c(c4c5cc(COCOC)ccc5n5c4c1n2C1CC(O)(C(=O)OC)C5(C)O1)CNC3=O (stereo not drawn) [Compound 155] | 197 (300 nM) % of Control
42 | COCOCc1ccc2c(c1)c1c3c(c4c5ccccc5n5c4c1n2C1CC(O)(C(=O)OC)C5(C)O1)CNC3=O (stereo not drawn) [Compound 154] | 177 (300 nM) % of Control
